# Assay results reported in US20250250303A1 (THE TRUSTEES OF COLUMBIA UNIVERSITY IN THE CITY OF NEW YORK, priority 2022, published 2025).
# Bridge positions count the residues as written; N and C are the ends. Ends that are not written are not given here.
# Experiments:
# [1] = Chronic treatment by osmotic minipump; format: in vivo, mice
# Description: 2-month-old male mice were implanted with osmotic minipump releasing Humulin (0.2 U/day), S597 (0.3 U/day), or S597-S20D (0.3 U/day). […] Hepes, N=7; Humulin, N=8; S597, N=7; S597-S20D, N=4. […] Hepes, N=7; Humulin, N=8; S597, N=9; S597-S20D, N=4. Two-way ANOVA followed by Tukey's multiple comparisons test. […] Mean±SEM. Hepes, N=8; Humulin, N=7; S597, N=9; S597-S20D, N=5. […] Hepes, N=4; Humulin and S597 analogs, N=5. two-tailed Student's t-test. All graphs show Mean±SEM.
# To examine the long-term effects of S597 in vivo, C57BL/6J WT mice were implanted with osmotic minipumps releasing either HEPES, Humulin, or mimetics. […] Consistent with previous work, chronic treatment of Humulin increased body weight (FIGS. 11E, 11F).
# [2] = Insulin tolerance test; format: in vivo, mice; conditions: intraperitoneal; for blood glucose levels in ITT: FIGS. 10A, 8F, 8G; for blood glucose in insulin tolerance assays: FIGS. 12B, 12C
# Description: Insulin tolerance tests were performed as described previously with some modification. Briefly, 2-3 months old male mice were fasted for 2 hr. and their blood glucose levels (T=0) were measured with tail bleeding using a glucometer (AlphaTRAK). After then, mice were injected intraperitoneally with Humulin (6 nmol/kg body weight), S597 (9 nmol/kg), S597-S20D (9 nmol/kg), S597-W6A (9 nmol/kg), S597-F27A (9 nmol/kg), or S597-N20 (27 nmol/kg), and their blood glucose levels were measured at the indicated time points after injection.
# [3] = target: T1, IR wild-type (WT) (Homo sapiens, UniProt P06213); experiment: IR activation (auto-phosphorylation) assay in 293 FT cells expressing IR WT; format: cell-based; conditions: 293 FT cells expressing IR WT; 10 nM for 10 min
# T1 construct: expressed in transfected cells; host or cells: 293 FT cells
# T1 sequence (P06213 28-1370 isoform P06213-2 limits assumed): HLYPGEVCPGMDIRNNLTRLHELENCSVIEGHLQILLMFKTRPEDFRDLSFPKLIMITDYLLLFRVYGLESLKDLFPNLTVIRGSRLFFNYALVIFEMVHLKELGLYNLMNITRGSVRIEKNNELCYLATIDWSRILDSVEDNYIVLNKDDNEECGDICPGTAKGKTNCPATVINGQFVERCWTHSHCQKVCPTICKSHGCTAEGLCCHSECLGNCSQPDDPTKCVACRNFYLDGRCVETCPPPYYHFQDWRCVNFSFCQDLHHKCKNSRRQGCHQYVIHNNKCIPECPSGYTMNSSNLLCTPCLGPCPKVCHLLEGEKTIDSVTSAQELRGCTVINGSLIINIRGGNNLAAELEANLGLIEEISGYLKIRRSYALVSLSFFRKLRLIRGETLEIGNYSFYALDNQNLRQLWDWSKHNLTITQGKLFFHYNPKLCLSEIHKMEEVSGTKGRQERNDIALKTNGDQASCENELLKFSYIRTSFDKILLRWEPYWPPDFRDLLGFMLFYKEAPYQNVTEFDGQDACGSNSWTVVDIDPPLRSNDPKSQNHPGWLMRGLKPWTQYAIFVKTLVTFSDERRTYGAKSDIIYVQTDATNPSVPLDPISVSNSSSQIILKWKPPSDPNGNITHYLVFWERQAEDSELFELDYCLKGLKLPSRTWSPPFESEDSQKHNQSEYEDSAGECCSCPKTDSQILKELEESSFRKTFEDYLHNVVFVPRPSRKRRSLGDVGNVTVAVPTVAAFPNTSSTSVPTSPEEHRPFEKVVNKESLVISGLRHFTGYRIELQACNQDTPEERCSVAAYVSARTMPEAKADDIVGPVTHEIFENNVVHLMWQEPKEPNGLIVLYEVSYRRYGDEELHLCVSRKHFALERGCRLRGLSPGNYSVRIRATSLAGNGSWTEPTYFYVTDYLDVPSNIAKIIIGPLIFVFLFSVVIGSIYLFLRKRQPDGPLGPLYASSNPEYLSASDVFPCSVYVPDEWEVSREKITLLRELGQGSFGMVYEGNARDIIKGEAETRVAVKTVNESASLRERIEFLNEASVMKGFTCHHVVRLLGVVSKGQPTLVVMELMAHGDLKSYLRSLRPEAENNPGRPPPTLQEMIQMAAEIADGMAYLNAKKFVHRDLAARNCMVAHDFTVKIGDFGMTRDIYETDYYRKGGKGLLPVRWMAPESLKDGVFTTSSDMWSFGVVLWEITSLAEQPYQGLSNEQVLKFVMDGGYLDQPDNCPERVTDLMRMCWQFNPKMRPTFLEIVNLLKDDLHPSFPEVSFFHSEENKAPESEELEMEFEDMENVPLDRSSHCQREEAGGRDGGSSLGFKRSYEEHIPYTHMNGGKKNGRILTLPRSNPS
# T1 sequence (P06213 763-1382 partner limits assumed): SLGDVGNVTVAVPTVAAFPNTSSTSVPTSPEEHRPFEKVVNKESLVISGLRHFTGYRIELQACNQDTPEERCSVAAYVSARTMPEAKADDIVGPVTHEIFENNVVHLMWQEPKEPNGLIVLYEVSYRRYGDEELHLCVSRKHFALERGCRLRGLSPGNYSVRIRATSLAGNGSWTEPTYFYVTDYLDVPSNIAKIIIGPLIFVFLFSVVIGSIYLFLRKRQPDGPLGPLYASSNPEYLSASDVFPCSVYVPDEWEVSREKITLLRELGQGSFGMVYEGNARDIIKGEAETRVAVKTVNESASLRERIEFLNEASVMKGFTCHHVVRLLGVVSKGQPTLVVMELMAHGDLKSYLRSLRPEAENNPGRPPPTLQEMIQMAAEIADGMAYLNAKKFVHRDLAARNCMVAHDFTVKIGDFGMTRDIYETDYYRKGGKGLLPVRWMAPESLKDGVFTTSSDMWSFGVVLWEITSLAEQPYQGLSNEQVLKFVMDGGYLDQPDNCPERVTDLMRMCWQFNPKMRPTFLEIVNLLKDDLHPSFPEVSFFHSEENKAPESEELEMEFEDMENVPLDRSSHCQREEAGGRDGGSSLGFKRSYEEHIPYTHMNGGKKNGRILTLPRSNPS
# Description: The insulin receptor signaling assay was performed as described earlier with some modifications. For the activation assay, the short isoform of human IR in pCS2-MYC was used as described previously. Plasmid transfections into 293 FT cells were performed with Lipofectamin™ 2000 (Invitrogen).
# (§1) The cells were incubated with the lysis buffer B [50 mM Hepes pH 7.4, 150 mM NaCl, 10% Glycerol, 1% Triton X-100, 1 mM EDTA, 100 mM sodium fluoride, 2 mM sodium orthovanadate, 20 mM sodium pyrophosphate, 0.5 mM dithiothreitol (DTT), 2 mM phenylmethylsulfonyl fluoride (PMSF)] supplemented with complete Protease Inhibitor Cocktail (Roche), PhosSTOP (Sigma), and 25 U/ml turbo nuclease (Accelagen) on ice for 1 hr. After centrifuge at 20,817 g at 4° C. for 10 min, the concentrations of cell lysate were measured using Micro BCA Protein Assay Kit (Thermo Scientific). About 50-60 μg total proteins were analyzed by SDS-PAGE and quantitative Western blotting. The following antibodies were purchased from commercial sources: Anti-IR-pY1150/1151 (WB, 1:1000; 19H6; labeled as pY IR, Cat. #3024), anti-AKT (WB, 1:1000; 40D4, Cat. #2920), anti-pS473 AKT (WB, 1:1000; D9E, Cat. #4060), anti-ERK1/2 (WB, 1:1000; L34F12, Cat. #4696), anti-pERK1/2 (WB, […]; 197G2, Cat. #4377), anti-IRS1-pS616 (WB, 1:1000; C15H5, Cell Signaling, Cat. #3203); anti-IRS1 (WB, 1:1000; A301-158A, Bethyl Laboratory); anti-IR (WB, 1:500, CT-3, Santa Cruz; labeled as IR for primary hepatocytes and MEFs, Cat. #sc-57342); anti-IR (WB, 1:1000; EPR23566-103; labeled as IR for FIG. 31, ab278100, Abcam); anti-Myc (WB, 1:2000; 9E10, Cat. #11667149001, Roche; labeled as IR for 293 FT cells). For quantitative western blots, anti-rabbit immunoglobulin G (IgG) (H+L) (WB, 1:5000; Dylight 800 conjugates, Cat. #5151) and anti-mouse IgG (H+L) (WB, 1:5000; Dylight 680 conjugates, Cat. #5470) (Cell Signaling) were used as secondary antibodies. The membranes were scanned with the Odyssey Infrared Imaging System (Li—COR, Lincoln, NE).
# [4] = tested on: IR signaling; experiment: IR signaling in primary mouse hepatocytes; format: cell-based
# Description: Primary hepatocytes were isolated from 2-month-old male mice with a standard two-step collagenase perfusion procedure as described earlier with some modifications. […] After 1-2 sec upon appearance of white spots in the liver, the portal vein was cut with scissors to wash out blood, and then the liver was perfused with 30 ml of Liver Digest Medium (Thermo Scientific, Cat. #17703034). Dissected liver was gently washed with low glucose DMEM and transferred to sterile culture dish containing 15 ml Liver Digest Medium. The isolated liver cells were filtered through the 70 μm cell strainer into a 50 ml tube. After centrifuge at 50 g for 5 min at 4° C., cells were washed with cold low glucose DMEM three times. […] After 2 hr., the medium was changed to serum free low-glucose DMEM.
# as §1
# [5] = tested on: SREBP1; experiment: Immunofluorescence assay for SREBP1 translocation in primary hepatocytes; format: cell-based, mouse; conditions: 100 nM for 30 min
# Description: Primary hepatocytes were as described in the primary hepatocyte isolation section. […] Cells were fixed with 4% paraformaldehyde for 10 min. The fixed cells were incubated with PBS for 30 min and 3% BSA in PBS with 0.1% Triton X-100 (0.1% PBST) for 1 hr., and then treated with anti-SREBP1 antibodies (20B12, Millipore, Cat. #MABS1987, 1:200) in 3% BSA in 0.1% PBST at 4° C. overnight. After being washed, cells were incubated with secondary antibodies (Alexa Fluor 488 goat anti-rabbit, Invitrogen, Cat. #A11008, 1:200) for 1 hr. Cells were washed and mounted on microscope slides in ProLong Gold Antifade reagent with DAPI (Invitrogen). Images were acquired as a series of 0.2 μm stacks with a Leica Thunder Imager (Leica Microsystems Inc.). Raw images were deconvolved using LAS X Software (Leica Microsystems Inc.). The nuclear edges and the nuclear SREBP1 signal were defined with Image J. Identical exposure times and magnifications were used for all comparative analyses.
# [6] = tested on: IR signaling; experiment: Insulin signaling in vivo (liver, skeletal muscle, WAT lysates, western blot); set-up: species or system mice; conditions: WAT; compared to vehicle treated conditions
# Description: 2-3 months old male mice were fasted overnight. […] Livers were removed at 3 min after injection. White adipose tissue and skeletal muscles were removed at 5 min and 7 min after injection, respectively. Tissues were mixed with the lysis buffer B supplemented with complete Protease Inhibitor Cocktail (Roche), PhosSTOP (Sigma), and 25 U/ml turbo nuclease (Accelagen), homogenized with FisherbrandTM Bead Mill homogenizer, and then incubated on ice for 1 hr. After centrifuge at 20,817 g at 4° C. for 30 min, the concentrations of cell lysate were measured using Micro BCA Protein Assay Kit (Thermo Scientific). The lysates were then analyzed by quantitative western blotting.
# [7] = tested on: C2C12 cells; experiment: MTT assay in C2C12 cells; format: cell-based
# Description: To examine the function of […] on cell viability and growth, an MTT assay was performed in C2C12 cells.
# [8] = target: T2, full-length mouse insulin receptor, short isoform, D1122N Y962F (mouse, UniProt P15208 28-1372); experiment: cryo-EM of full-length IR with S597-N20
# T2 construct: mature; Residue numbers are as printed; also called MmIR; IR
# T2 sequence (P15208 28-1372 Y989F/D1149N limits assumed): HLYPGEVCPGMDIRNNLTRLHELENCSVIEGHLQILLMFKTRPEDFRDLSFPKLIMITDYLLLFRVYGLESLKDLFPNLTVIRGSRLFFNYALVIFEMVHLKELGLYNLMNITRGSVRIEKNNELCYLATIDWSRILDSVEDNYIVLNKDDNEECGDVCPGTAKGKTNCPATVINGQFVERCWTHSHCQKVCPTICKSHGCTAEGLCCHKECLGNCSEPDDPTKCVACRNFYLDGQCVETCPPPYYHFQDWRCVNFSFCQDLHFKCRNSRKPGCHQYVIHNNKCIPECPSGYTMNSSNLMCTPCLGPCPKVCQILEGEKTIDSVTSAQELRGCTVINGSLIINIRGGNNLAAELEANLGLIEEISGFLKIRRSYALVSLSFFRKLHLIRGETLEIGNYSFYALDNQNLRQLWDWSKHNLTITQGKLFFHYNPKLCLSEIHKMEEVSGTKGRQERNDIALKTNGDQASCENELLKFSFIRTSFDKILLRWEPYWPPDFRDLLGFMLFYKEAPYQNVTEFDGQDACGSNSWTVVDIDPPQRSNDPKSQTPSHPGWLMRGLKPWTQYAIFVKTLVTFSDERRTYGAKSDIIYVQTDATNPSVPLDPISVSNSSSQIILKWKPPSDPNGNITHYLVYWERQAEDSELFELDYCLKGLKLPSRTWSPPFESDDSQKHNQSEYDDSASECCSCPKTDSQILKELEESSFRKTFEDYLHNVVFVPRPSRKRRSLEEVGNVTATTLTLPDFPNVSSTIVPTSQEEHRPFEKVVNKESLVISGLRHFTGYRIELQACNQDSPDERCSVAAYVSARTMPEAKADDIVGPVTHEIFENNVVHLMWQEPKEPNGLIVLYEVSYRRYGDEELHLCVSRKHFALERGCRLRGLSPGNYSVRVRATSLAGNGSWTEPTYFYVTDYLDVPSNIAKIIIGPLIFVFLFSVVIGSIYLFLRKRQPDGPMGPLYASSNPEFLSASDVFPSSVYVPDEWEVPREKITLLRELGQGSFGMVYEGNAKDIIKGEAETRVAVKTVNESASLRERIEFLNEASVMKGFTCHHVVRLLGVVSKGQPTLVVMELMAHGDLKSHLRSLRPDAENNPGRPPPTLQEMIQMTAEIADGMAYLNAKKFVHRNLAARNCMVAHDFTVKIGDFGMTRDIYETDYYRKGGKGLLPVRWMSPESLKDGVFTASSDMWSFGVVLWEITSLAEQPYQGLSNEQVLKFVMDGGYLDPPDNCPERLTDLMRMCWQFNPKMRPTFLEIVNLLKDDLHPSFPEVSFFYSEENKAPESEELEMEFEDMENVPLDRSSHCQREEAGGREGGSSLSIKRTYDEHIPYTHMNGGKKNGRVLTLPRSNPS
# Description: (§2) The cryo-EM grid was prepared by applying 3 μl of the protein samples (6 mg/ml) to glow-discharged Quantifoil R1.2/1.3 300-mesh gold holey carbon grids (Quantifoil, Micro Tools GmbH, Germany). Grids were blotted for 4.0 seconds under 100% humidity at 4° C. before being plunged into the liquid ethane using a Mark IV Vitrobot (FEI). Micrographs were acquired on a Titan Krios microscope (FEI) operated at 300 kV with a K3 direct electron detector (Gatan), using a slit width of 20 eV on a GIF-Quantum energy filter. SerialEM 3.8 was used for the data collection. […] The defocus range was set from 1.6 μm to 2.6 μm. Each micrograph was dose-fractionated to 30 frames with a total dose of about 60 e⁻/Å².
# [9] = target: T2, full-length mouse insulin receptor, …; experiment: cryo-EM of full-length IR with S597, 5.4 Å
# Description: as §2
molecule,measurement,setting,value
"Humulin: Humulin (human insulin), Eli Lilly",body weight gain,[1],increased
same,C-peptide (insulin secretion),"[1]; serum, 4 h fasted mice",decreased
same,blood glucose levels in ITT,[2],lowered
"S597-F27A: S597-component-1 mutant, interrupts the IR L1/S597-component-1 interaction (Ac-SLEEEWAQIECEVYGRGCPSESFYDWAERQL; disulfide 11-18 (inferred))",blood glucose levels in ITT,[2],did not reduce
same,blood glucose in insulin tolerance assays,[2],"did not reduce glucose levels, but rather elevated them"
same,"IR activation (auto-phosphorylation of IR, pY IR)",[3],greatly reduced potency
S597-N20: N-terminal 20 residues of S597 comprising only component-2 and the linker (Ac-SLEEEWAQIECEVYGRGCPS; disulfide 11-18 (inferred)),blood glucose levels in ITT,[2],did not reduce
same,blood glucose in insulin tolerance assays,[2],"did not reduce glucose levels, but rather elevated them"
same,pAKT,[4],did not induce phosphorylation
same,pERK,[4],did not induce phosphorylation
same,pY IR,[4],did not induce phosphorylation
same,"IR activation (auto-phosphorylation of IR, pY IR)",[3],greatly reduced potency
"S597-W6A: S597-component-2 mutant, disrupts the IR FnIII-1/S597-component-2 interaction (Ac-SLEEEAAQIECEVYGRGCPSESFYDWFERQL; disulfide 11-18 (inferred))",blood glucose levels in ITT,[2],did not reduce
same,blood glucose in insulin tolerance assays,[2],"did not reduce glucose levels, but rather elevated them"
same,"IR activation (auto-phosphorylation of IR, pY IR)",[3],greatly reduced potency
insulin,pAKT,[4],increased
same,pERK,[4],increased
same,pY IR,[4],increased
same,nuclear translocation of SREBP1,[5],stimulated to the same level
same,pAKT level,[6],significantly increased
same,pERK level,[6],neither insulin nor S597 had a statistically significant effect
same,cell viability and growth,[7],significantly increased
insulin-like growth factor 1 [IGF1],cell viability and growth,[7],significantly increased
"Ac-SLEEEWAQIECEVYGRGCPS (disulfide 11-18 (inferred), also called S597-component-2; S597-component-2 alone) [S597-N20]",binding result,[8],binds
"Ac-SLEEEWAQIECEVYGRGCPSESFYDWFERQL (disulfide 11-18 (inferred), Component-2 (N-terminal helix), linker, component-1 (C-terminal helix); also called full-length S597) [S597]",stoichiometry (S597: IR dimer),[9],2 S597 per IR dimer
